According to US8946203B2, “Benzodioxane inhibitors of leukotriene production” (Boehringer Ingelheim International GmbH, priority 2012, dated 2015):
Where two headings read alike, the source gives them in different places.

How the values were obtained:
human LTA4 hydrolase = target: T1, human LTA4 hydrolase (Homo sapiens, UniProt P09960); experiment: LTA4H Enzyme assay (cleavage of Arg-AMC, fluorescence); type: biochemical
T1 sequence (P09960 1-611): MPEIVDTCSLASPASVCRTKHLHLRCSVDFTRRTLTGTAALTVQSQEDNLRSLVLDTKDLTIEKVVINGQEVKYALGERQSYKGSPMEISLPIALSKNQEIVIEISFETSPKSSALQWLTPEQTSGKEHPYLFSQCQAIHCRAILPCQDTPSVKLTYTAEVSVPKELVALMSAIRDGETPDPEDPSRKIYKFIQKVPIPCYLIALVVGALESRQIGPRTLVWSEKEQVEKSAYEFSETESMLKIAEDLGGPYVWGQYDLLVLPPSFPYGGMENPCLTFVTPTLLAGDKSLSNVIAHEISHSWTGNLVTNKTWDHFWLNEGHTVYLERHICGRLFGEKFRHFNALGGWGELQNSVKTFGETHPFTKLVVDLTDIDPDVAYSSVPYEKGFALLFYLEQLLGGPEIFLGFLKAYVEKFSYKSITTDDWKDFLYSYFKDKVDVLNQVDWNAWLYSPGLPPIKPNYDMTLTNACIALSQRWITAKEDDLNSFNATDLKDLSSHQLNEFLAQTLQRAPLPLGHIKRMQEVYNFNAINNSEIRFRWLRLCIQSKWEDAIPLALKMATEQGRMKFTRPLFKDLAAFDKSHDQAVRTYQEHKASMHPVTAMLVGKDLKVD
How it was run: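 Aminomethylcoumarin release measured fluorimetrically (380/460 nm) after 1 h at room temperature. Reaction: 1 nM final enzyme, 50 μM final Arg-AMC and compound in Tris-HCl pH 7.5 with 100 mM KCl and 0.5% BSA.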

[1] = test system: synthesis of LTB4 in human whole blood; experiment: human whole blood (HWB) assay, LTB4 production inhibition after calcimycin stimulation; type: cell-based; conditions: heparinized human whole blood, calcimycin 20 μM, plasma LTB4 by HTRF
Method: The compounds of the invention are additionally tested in a human whole blood (HWB) assay to determine their ability to inhibit the synthesis of LTB4 in a cellular system. Compounds are combined with heparinized human whole blood and incubated for 15 minutes at 37° C. Calcimycin (20 μM final, prepared in phosphate-buffered saline, pH 7.4) is then added and the mixture is incubated for another 30 minutes at 37° C. The samples are centrifuged for 5 min at low speed (1500×g) and the plasma layer is removed. Plasma LTB4 concentrations are then measured using an antibody-based homogenous time-resolved fluorescence method (CisBio, Bedford, Mass.). In general, the preferred potency range (IC50) of compounds in the HWB assay is between 10 nM to 10 μM, the more preferred potency range is 10 nM to 1 μM, and the most preferred potency range is 10 nM to 100 nM.

[2] = LTA4H Enzyme 1 nM, Arg-AMC substrate 50 μM, room temperature 1 h, fluorescence, read-out: IC50 values of LTA4H Enzyme assay

**Q.** How did the IC50 (human LTA4 hydrolase; [2]) turn out when CCOC(=O)c1nnc2n1CCN(Cc1ccc([C@H]3COc4cccnc4O3)cc1)C2 [Example 240, 7-[(S)-4-(2,3-dihydro-[1,4]dioxino[2,3-b]pyridin-3-yl)-benzyl]-5,6,7,8-tetrahydro-[1,2,4]triazolo[4,3-a]pyrazine-3-carboxylic acid ethyl ester] was run?
**A.** 0.56 nM

**Q.** What about the IC50 [1] of the same compound?
**A.** 140 nM

**Q.** NC(=O)c1nnc2n1CCN(Cc1ccc([C@H]3COc4cccnc4O3)cc1)C2 [Example 241, 7-[(S)-4-(2,3-Dihydro-[1,4]dioxino[2,3-b]pyridin-3-yl)-benzyl]-5,6,7,8-tetrahydro-[1,2,4]triazolo[4,3-a]pyrazine-3-carboxylic acid amide] was tested. Which IC50 (human LTA4 hydrolase; [2]) did it give?
**A.** 0.5 nM

**Q.** And the IC50 [1]?
**A.** 110 nM

**Q.** Which results are given for CNC(=O)c1nnc2n1CCN(Cc1ccc([C@H]3COc4cccnc4O3)cc1)C2 [Example 242, 7-[(S)-4-(2,3-dihydro-[1,4]dioxino[2,3-b]pyridin-3-yl)-benzyl]-5,6,7,8-tetrahydro-[1,2,4]triazolo[4,3-a]pyrazine-3-carboxylic acid methylamide]?
**A.** IC50 (human LTA4 hydrolase; [2]): 0.6 nM; IC50 [1]: 170 nM

**Q.** How did the IC50 (human LTA4 hydrolase; [2]) turn out when NC(=O)c1cn2c(n1)CN(Cc1ccc([C@H]3COc4cccnc4O3)cc1)CC2 [Example 243, 7-[(S)-4-(2,3-dihydro-[1,4]dioxino[2,3-b]pyridin-3-yl)-benzyl]-5,6,7,8-tetrahydro-imidazo[1,2-a]pyrazine-2-carboxylic acid amide] was run?
**A.** 0.42 nM

**Q.** And the IC50 [1]?
**A.** 99 nM

**Q.** With CNC(=O)c1cn2c(n1)CN(Cc1ccc([C@H]3COc4cccnc4O3)cc1)CC2 [Example 244, 7-[(S)-4-(2,3-dihydro-[1,4]dioxino[2,3-b]pyridin-3-yl)-benzyl]-5,6,7,8-tetrahydro-imidazo[1,2-a]pyrazine-2-carboxylic acid methylamide] as the compound, how does the IC50 (human LTA4 hydrolase; [2]) read?
**A.** 0.26 nM

**Q.** And the IC50 [1]?
**A.** 120 nM

**Q.** With NC(=O)c1nnc2n1CCN(Cc1ccc([C@H]3COc4cccnc4O3)cc1)CC2 [Example 245, 6-[(S)-4-(2,3-dihydro-[1,4]dioxino[2,3-b]pyridin-3-yl)-benzyl]-5,6,7,8-tetrahydro-4H-1,2,3a,6-tetraaza-azulene-3-carboxylic acid amide] as the compound, how does the IC50 (human LTA4 hydrolase; [2]) read?
**A.** 0.32 nM

**Q.** And the IC50 [1]?
**A.** 130 nM

**Q.** CNC(=O)c1nnc2n1CCN(Cc1ccc([C@H]3COc4cccnc4O3)cc1)CC2 [Example 246, 6-[(S)-4-(2,3-Dihydro-[1,4]dioxino[2,3-b]pyridin-3-yl)-benzyl]-5,6,7,8-tetrahydro-4H-1,2,3a,6-tetraaza-azulene-3-carboxylic acid methylamide] was tested. Which IC50 (human LTA4 hydrolase; [2]) did it give?
**A.** 0.29 nM

**Q.** And the IC50 [1]?
**A.** 91 nM

**Q.** With C[C@H](O)CNC(=O)[C@H]1[C@@H]2CN(Cc3ccc([C@H]4COc5cccnc5O4)cc3)C[C@@H]21 [Example 247, [(1α,5α,6α)-3-[(S)-4-(2,3-dihydro-[1,4]dioxino[2,3-b]pyridin-3-yl)-benzyl]-3-aza-bicyclo[3.1.0]hexane]-6-carboxylic acid ((S)-2-hydroxy-propyl)-amide] as the compound, how does the IC50 (human LTA4 hydrolase; [2]) read?
**A.** 0.17 nM

**Q.** What about the IC50 [1] of the same compound?
**A.** 68 nM

**Q.** Which IC50 (human LTA4 hydrolase; [2]) does the source give for C[C@@H](CO)NC(=O)[C@H]1[C@@H]2CN(Cc3ccc([C@H]4COc5cccnc5O4)cc3)C[C@@H]21 [Example 248, [(1α,5α,6α)-3-[(S)-4-(2,3-Dihydro-[1,4]dioxino[2,3-b]pyridin-3-yl)-benzyl]-3-aza-bicyclo[3.1.0]hexane]-6-carboxylic acid ((S)-2-hydroxy-1-methyl-ethyl)-amide] here?
**A.** 0.17 nM

**Q.** What about the IC50 [1] of the same compound?
**A.** 58 nM

**Q.** For N#Cc1cnc2n1CCN(Cc1ccc([C@H]3COc4cccnc4O3)cc1)C2 [Example 249, 7-[(S)-4-(2,3-Dihydro-[1,4]dioxino[2,3-b]pyridin-3-yl)-benzyl]-5,6,7,8-tetrahydro-imidazo[1,2-a]pyrazine-3-carbonitrile], which IC50 (human LTA4 hydrolase; [2]) is on record?
**A.** 0.25 nM

**Q.** And the IC50 [1]?
**A.** 58 nM

**Q.** With CC(=O)N[C@H]1[C@@H]2CN(Cc3ccc([C@H]4COc5cccnc5O4)cc3)C[C@@H]21 [Example 250, N-{(1α,5α,6α)-3-[(S)-4-(2,3-Dihydro-[1,4]dioxino[2,3-b]pyridin-3-yl)-benzyl]-3-aza-bicyclo[3.1.0]hex-6-yl}-acetamide] as the compound, how does the IC50 (human LTA4 hydrolase; [2]) read?
**A.** 0.56 nM

**Q.** And the IC50 [1]?
**A.** 84 nM

**Q.** Which results are given for CC(C)(O)CNC(=O)[C@H]1[C@@H]2CN(Cc3ccc([C@H]4COc5cccnc5O4)cc3)C[C@@H]21 [Example 251, [(1α,5α,6α)-3-[(S)-4-(2,3-Dihydro-[1,4]dioxino[2,3-b]pyridin-3-yl)-benzyl]-3-aza-bicyclo[3.1.0]hexane-6-carboxylic acid (2-hydroxy-2-methyl-propyl)]-amide]?
**A.** IC50 (human LTA4 hydrolase; [2]): 0.16 nM; IC50 [1]: 63 nM

**Q.** With COCC(=O)NC1CCN(Cc2ccc([C@H]3COc4cccnc4O3)cc2)CC1 [Example 252, N-{1-[(S)-4-(2,3-Dihydro-[1,4]dioxino[2,3-b]pyridin-3-yl)-benzyl]-piperidin-4-yl}-2-methoxy-acetamide] as the compound, how does the IC50 (human LTA4 hydrolase; [2]) read?
**A.** 0.15 nM

**Q.** And the IC50 [1]?
**A.** 42 nM

**Q.** How did the IC50 (human LTA4 hydrolase; [2]) turn out when O=C(CO)N1CCN(Cc2ccc([C@H]3COc4cccnc4O3)cc2)CC1 [Example 253, 1-{4-[(S)-4-(2,3-Dihydro-[1,4]dioxino[2,3-b]pyridin-3-yl)-benzyl]-piperazin-1-yl}-2-hydroxy-ethanone] was run?
**A.** 0.7 nM

**Q.** What about the IC50 [1] of the same compound?
**A.** 110 nM

**Q.** For O=C(O)c1ccc(C2CN(Cc3ccc([C@H]4COc5ccccc5O4)cc3)C2)cc1 [Example 254, 4-{1-[(S)-4-(2,3-Dihydro-benzo[1,4]dioxin-2-yl)-benzyl]-azetidin-3-yl}-benzoic acid], which IC50 (human LTA4 hydrolase; [2]) is on record?
**A.** 0.24 nM

**Q.** What about the IC50 [1] of the same compound?
**A.** 84 nM

**Q.** How did the IC50 (human LTA4 hydrolase; [2]) turn out when CC(C)(O)CNC(=O)C1CCN(Cc2ccc([C@H]3COc4cccnc4O3)cc2)CC1 [Example 255, 1-[(S)-4-(2,3-Dihydro-[1,4]dioxino[2,3-b]pyridin-3-yl)-benzyl]-piperidine-4-carboxylic acid (2-hydroxy-2-methyl-propyl)-amide] was run?
**A.** 0.17 nM

**Q.** And the IC50 [1]?
**A.** 76 nM

**Q.** Which results are given for CS(=O)(=O)CC(=O)N1C[C@@H]2C[C@H]1CN2Cc1ccc([C@H]2COc3cccnc3O2)cc1 [Example 256, 1-{(1S,4S)-5-[(S)-4-(2,3-Dihydro-[1,4]dioxino[2,3-b]pyridin-3-yl)-benzyl]-2,5-diaza-bicyclo[2.2.1]hept-2-yl}-2-methanesulfonyl-ethanone]?
**A.** IC50 (human LTA4 hydrolase; [2]): 0.49 nM; IC50 [1]: 110 nM

**Q.** With COCC(=O)N1CCCN(Cc2ccc([C@H]3COc4cccnc4O3)cc2)CC1 [Example 257, 1-{4-[(S)-4-(2,3-Dihydro-[1,4]dioxino[2,3-b]pyridin-3-yl)-benzyl]-[1,4]diazepan-1-yl}-2-methoxy-ethanone] as the compound, how does the IC50 (human LTA4 hydrolase; [2]) read?
**A.** 0.48 nM

**Q.** What about the IC50 [1] of the same compound?
**A.** 270 nM

**Q.** Which IC50 (human LTA4 hydrolase; [2]) does the source give for Nc1nc2c(s1)CN(Cc1ccc([C@H]3COc4cccnc4O3)cc1)CC2 [Example 258, 5-[(S)-4-(2,3-Dihydro-[1,4]dioxino[2,3-b]pyridin-3-yl)-benzyl]-4,5,6,7-tetrahydro-thiazolo[5,4-c]pyridin-2-ylamine] here?
**A.** 0.37 nM

**Q.** What about the IC50 [1] of the same compound?
**A.** 210 nM

**Q.** Which results are given for NC(=O)N[C@H]1C[C@H]2CC[C@@H](C1)N2Cc1ccc([C@H]2COc3cccnc3O2)cc1 [Example 259, {(endo)-8-[(S)-4-(2,3-Dihydro-[1,4]dioxino[2,3-b]pyridin-3-yl)-benzyl]-8-aza-bicyclo[3.2.1]oct-3-yl}-urea]?
**A.** IC50 (human LTA4 hydrolase): 0.3 nM; IC50 [1]: 790 nM

**Q.** CONC(=O)CC1CCN(Cc2ccc([C@H]3COc4cccnc4O3)cc2)CC1 [Example 260, 2-{1-[(S)-4-(2,3-Dihydro-[1,4]dioxino[2,3-b]pyridin-3-yl)-benzyl]-piperidin-4-yl}-N-methoxy-acetamide] was tested. Which IC50 (human LTA4 hydrolase; [2]) did it give?
**A.** 0.57 nM

**Q.** What about the IC50 [1] of the same compound?
**A.** 100 nM

**Q.** Which results are given for CN[C@H](C)C(=O)NC1CCN(Cc2ccc([C@H]3COc4cccnc4O3)cc2)CC1 [Example 261, (R)-N-{1-[(S)-4-(2,3-Dihydro-[1,4]dioxino[2,3-b]pyridin-3-yl)-benzyl]-piperidin-4-yl}-2-methylamino-propionamide]?
**A.** IC50 (human LTA4 hydrolase; [2]): 2.5 nM; IC50 [1]: 260 nM

**Q.** Which results are given for CC(C)(O)C(=O)NCC1CCN(Cc2ccc([C@H]3COc4cccnc4O3)cc2)CC1 [Example 262, N-{1-[(S)-4-(2,3-Dihydro-[1,4]dioxino[2,3-b]pyridin-3-yl)-benzyl]-piperidin-4-ylmethyl}-2-hydroxy-2-methyl-propionamide]?
**A.** IC50 (human LTA4 hydrolase; [2]): 0.51 nM; IC50 [1]: 170 nM

**Q.** Which IC50 (human LTA4 hydrolase; [2]) does the source give for CS(=O)(=O)NC[C@@H]1[C@H]2CN(Cc3ccc([C@H]4COc5cccnc5O4)cc3)C[C@@H]12 [Example 263, N-{(1α,5α,6α)-3-[(S)-4-(2,3-Dihydro-[1,4]dioxino[2,3-b]pyridin-3-yl)-benzyl]-3-aza-bicyclo[3.1.0]hex-6-ylmethyl}-methanesulfonamide] here?
**A.** 0.49 nM

**Q.** What about the IC50 [1] of the same compound?
**A.** 130 nM
